In patent US11779565B2, “Small organic molecules for use in the treatment of neuroinflammatory disorders” (THE MEDICAL RESEARCH, INFRASTRUCTURE AND HEALTH SERVICES …, priority 2017, dated 2023):

Assays:
BMP-4 = target: T1, BMP-4 (Homo sapiens, UniProt P12644); test: ATDC5 bioassay with rhBMP-4 stimulation instead of rhBMP-2 (ALP); assay type: cell-based, mouse; conditions: ATDC5 cells; for effect on ALP production induced by BMP-4 compared with BMP-2: 2.5 μM and 5 μM; for inhibition at 2.5 µM: read-out: inhibition of BMP-4 (ALP induction)
T1 sequence (P12644 293-408): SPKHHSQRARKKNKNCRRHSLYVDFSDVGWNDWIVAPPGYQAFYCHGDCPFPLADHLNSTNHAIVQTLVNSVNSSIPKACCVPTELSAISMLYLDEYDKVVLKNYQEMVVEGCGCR
Description: (§1) Poly-L-lysine (Sigma-Aldrich) was added to 384-well plates and was removed after 30 min of incubation at RT. An assay medium containing DMEM/F12, 2% FBS, 100 units/ml penicillin, […] streptomycin (Biological industries) was added to each well. […] ATDC5 cells (Sigma-Aldrich) were harvested, re-suspended in assay medium and added to a final concentration of 2000 cells/well. Finally, heparin (Sigma-Aldrich) was added to a final concentration of 2 μg/ml. The cells were incubated for 48 hours at 37° C. with 5% CO2 in a humidified chamber in the presence or absence of potential small molecule inhibitors of BPM-2. After incubation, ALP levels and cell viability were determined using a completely automated protocol. Cells were washed with PBS, lysed using a lysis buffer containing 0.2% Triton X-100 in PBS supplemented with a protease inhibitor cocktail (Sigma-Aldrich) and incubated for 25 min at RT. ALP level was then determined by addition of CDP-Star® chemiluminescent substrate (Sigma-Aldrich) and measurement of luminescence after incubation for 25 min at RT in the dark. Cell viability was finally determined by addition of CellTiter-Glo® reagent (Biological Industries) and luminescence measurement after 10 min of incubation.
Due to the high homology between BMP-2 and BMP-4, the ability of the SMs to inhibit BMP-2 and BMP-4 signaling (similar to the effect of the anti-BMP-2/4 mAb) was also examined.

RR-EAE mice = test: De novo expression of NeuN (BrdU+NeuN+ cells) in SGZ of RR-EAE mice; assay type: in vivo
Description: FIGS. 12A-12B—The effect of SM1, SM7, SM9 and SM6 on de novo expression of mature neurons marker NeuN in the SGZ. FIG. 12A: immunohistochemical images showing the labeling of BrdU^+NeuN^+ cells in the SGZ. Images were obtained using Olympus 8.1 microscope (magnification×10). FIG. 12B: Quantification of BrdU^+NeuN^+ in the SGZ. Analysis was performed using image J software on 3 sections from each mouse (3 mice from each group, total n=9). Values are given as mean±SEM and the results of Student's t-test are represented as *p<0.05.
RR-EAE induced mice were intraperitoneally injected with 250 μg/mouse (Low-L) or 500 μg/mouse (High-H) of the small molecules SM1, SM7, SM9, SM6, or the corresponding vehicle. The SMs were injected each day starting on day 9 post immunization for 30 days. For immunohistochemical analysis, 3 mice of each group were intraperitoneally injected daily with bromo-2′-deoxyuridine (BrdU) starting from day 9 post immunization for 8 following days.
In this experiment, the amount of BrdU^+NeuN^+ cells in the SGZ of mice was evaluated. FIGS. 12A-12B show immunohistochemical labeling of BrdU^+NeuN^+ cells in mice with EAE that were treated with SMs or vehicle, using Olympus 8.1 microscope (magnification×10).

ATDC5 cells = test: Cell viability (CellTiter-Glo) in the ATDC5 HTS bioassay; assay type: cell-based; conditions: library screening
Description: as §1
An ATDC5 cell based assay for assessing structure-function relationship of BMP-2 and BMP receptor IA was originally described in Keller et al (Nature Structural & Molecular Biology 2004 11, 481-488). In order to screen a large volume of potential therapeutic agents the ATDC5 cell based bioassay for detecting BMP inhibition was adapted for use in high throughput screening. The bioassay is based on the stimulation of alkaline phosphatase (ALP) production in mouse ATDC5 cells by administration of BMP-2 and heparin, and measurement of ALP levels in the presence of the potential inhibitors. The assay was characterized by the following features: • (a) optimal conditions for HTS automated instruments were found so as to obtain a satisfying gap (i.e. positive Z-prime, above 0.5) between ALP production in the presence of BMP-2, to ALP production in the absence of BMP-2 (no stimulation). • (b) a sensitive method was designed for ALP determination for HTS—namely, the use of CDP-Star® chemiluminescent substrate and luminescence measurement. • (c) both ALP production and cells' viability were measured simultaneously. This was achieved by using CellTiter-Glo® Luminescent Cell Viability Assay for assessing the cells' viability after the luminescent signal by CDP-Star® has faded. […]
A library of small molecules (SM) was screened using the High Throughput Screening bioassay described above. […] The ALP levels and cell viability are shown in FIG. 2 as a percentage of the ALP or viability luminescence levels in the presence of BMP-2 without the SM. […]

[1] = high dose (H) 500 μg/mouse i.p. daily

Compound | effect on ALP production induced by BMP-4 compared with BMP-2 (BMP-4) | BrdU+NeuN+ cells in the SGZ vs. vehicle (RR-EAE mice; [1]) | cytotoxicity in mouse ATDC5 cells (ATDC5 cells) | inhibition at 2.5 µM (BMP-4) [%] | BrdU+NeuN+ cells in the SGZ vs. vehicle (RR-EAE mice; low dose (L) 250 μg/mouse i.p. daily)
COC(=O)c1sccc1N/N=C(\C#N)S(=O)(=O)c1cccs1 [SM1, Methyl 3-[(2E)-2-[cyano(thiophen-2-ylsulfonyl)methylidene]hydrazinyl]thiophene-2-carboxylate] | same effect | significant increased induction | without leading to cytotoxicity | – | –
O=C(Nc1cccc(C(F)(F)F)c1)c1ccc([N+](=O)[O-])o1 [SM6, N2-[3-(trifluoromethyl)phenyl)-5-nitro-2-furamide] | same effect | – | without leading to cytotoxicity | – | –
N#Cc1c(O)nsc1Nc1ccccc1C(F)(F)F [SM7, 3-hydroxy-5-[2-(trifluoromethyl)aniline]isothiazole-4-carbonitrile] | inhibit BMP-2 slightly more than BMP-4 | – | without leading to cytotoxicity | 29.8 | –
CS(=O)(=O)c1noc(-c2ccc(Cl)cc2)c1C#N [SM9, 5-(4-chlorophenyl)-3-methylsulfonyl-1,2-oxazole-4-carbonitrile] | inhibit BMP-2 slightly more than BMP-4 | trend for increased | without leading to cytotoxicity | 18.9 | significant increased induction
